Here are results for 52 molecules from PubChem BioAssay AID1996.

Values after ≈ are worked out from the molar mass of the structure shown.

Usually solubility (kinetic) stands for solubility judged after dilution from a stock solution rather than from solid.

For this data set the following is noted: buffer; pH 7.4; 200.0 µM.
`O=C(CSC1=Nc2ccccc2C2CC=NN12)NCc1ccco1` (configuration not stated) returned a kinetic solubility greater than 51.1 µg/mL. To `O=C(O)C1CCC(CNS(=O)(=O)c2ccccc2)CC1` (configuration not stated) belongs greater than 44.6 µg/mL; to `Cc1cccc(N2CN(S(=O)(=O)c3cccc([N+](=O)[O-])c3)c3nc4ccccc4nc32)c1`, 0.7 µg/mL (≈ 1.56 µM); to `CC1=C(C(=O)Nc2ccccc2)S(=O)(=O)CCO1`, 38 µg/mL (≈ 142 µM). Regarding `Cn1c(CNC(=O)C2CCCCC2)cc2cc(Cl)ccc21`, the solubility (kinetic) is less than 0.3 µg/mL. For the molecule `Cc1ccc(C)c(NC(=O)/C(C#N)=C/c2ccc[nH]2)c1`, the solubility (kinetic) came to 3.7 µg/mL (≈ 13.9 µM). Turning to `CCOc1ccc(Nc2nc(N)c([N+](=O)[O-])c(NCc3ccccc3)n2)cc1`, the kinetic solubility is less than 0.1 µg/mL.

Turning to `CN(CC(=O)Nc1ccc(Cl)cc1F)C1=NS(=O)(=O)c2ccccc21`, the kinetic solubility was 7.8 µg/mL (≈ 20.4 µM).

Regarding `O=C(CSc1cc(Cl)ccc1Cl)NC1CC1`, the solubility (kinetic) was determined as 37.7 µg/mL (≈ 137 µM).

For the molecule `FC(F)(F)c1cnc(COc2cc(Cl)cc(Cl)c2)c(Cl)c1`, the solubility (kinetic) is less than 0.8 µg/mL. The molecule `Cc1[nH]c2ccc3ccccc3c2c(=O)c1C/C=C/Cl` showed a solubility (kinetic) of 1.1 µg/mL (≈ 3.88 µM). With `CCOc1ccc(N=CNc2ccc(OCC)cc2)cc1`, the kinetic solubility was found to be 33 µg/mL (≈ 116 µM).

As for `O=C(COC(=O)CSc1ccc(Cl)cc1)Nc1ccc2[nH]c(=O)[nH]c2c1`, the kinetic solubility came to 13.5 µg/mL (≈ 34.5 µM). `C/C(=N\NC(=O)c1cccc([N+](=O)[O-])c1)c1cccnc1`: the solubility (kinetic) is greater than 42.6 µg/mL. The result for `COc1ccc(S(=O)(=O)NCCc2ccccc2)cc1OC` reads 39.9 µg/mL (≈ 124 µM). In turn, `CC1CCN(S(=O)(=O)c2cccc3cccnc23)CC1` showed a solubility (kinetic) of 41.8 µg/mL (≈ 144 µM).

Molecule `Cc1ccc(N2C(=O)CCC2(C#N)c2ccccc2)cc1` (configuration not stated) displayed a kinetic solubility greater than 41.5 µg/mL. `NS(=O)(=O)c1ccc(CNC(=O)C(c2ccccc2)c2ccccc2)cc1` yielded a kinetic solubility of 56.1 µg/mL (≈ 147 µM). To `Cc1ccc2c(c1)C(=O)CCCCC(=O)N2` belongs greater than 32.6 µg/mL; to `Cc1nccn1CC(O)COc1ccc([N+](=O)[O-])cc1` (configuration not stated), greater than 41.6 µg/mL; to `COc1ccc(CCNC(=O)c2ccc3nc[nH]c3c2)cc1`, greater than 44.3 µg/mL. The result for `CCCC1(c2ccccc2)NC(=O)N(CC(=O)Nc2ccc(N3CCOCC3)cc2)C1=O` (configuration not stated) reads greater than 65.5 µg/mL; that for `COc1ccc(/C=C/C(=O)N[C@H](C(=O)O)C(C)C)cc1`, greater than 41.6 µg/mL; that for `CCCn1c(=O)c(Br)cn(-c2ccccc2C)c1=O`, 48.2 µg/mL (≈ 149 µM).

In turn, `Cc1cccc(N2CCN(C(=O)c3ccc4nccnc4c3)CC2C)c1` (configuration not stated) displayed a solubility (kinetic) greater than 52 µg/mL. Molecule `CC(C)C(=O)N1CCN(c2ccccc2NC(=O)c2ccco2)CC1` came in with a solubility (kinetic) of 48 µg/mL (≈ 141 µM). To `Cc1cccc(Oc2nc(-c3ccncc3)nc3ccccc23)c1` belongs less than 0.2 µg/mL; to `COCCn1c(-c2cccs2)nc2nc3ccccc3nc21`, 39.7 µg/mL (≈ 128 µM). `CCC(CC)NC(=O)Nc1ccc(C)cc1` had a kinetic solubility of 21.4 µg/mL (≈ 97.1 µM).

On to `O=C(CNCc1ccccc1)Nc1ccc(Cl)cc1`, for which the solubility (kinetic) is 38.6 µg/mL (≈ 140 µM). `CC(=O)NCCc1nc2ccccc2n1CCOc1cccc(C)c1`: the kinetic solubility was greater than 50.6 µg/mL. In the case of `CCS(=O)(=O)N1CCN(c2ncnc3sc(C)c(C)c23)CC1`, the solubility (kinetic) was greater than 51.1 µg/mL.

As for `NS(=O)(=O)c1cccc(NC(=O)COC(=O)CSCc2ccccc2)c1`, the solubility (kinetic) was greater than 59.2 µg/mL. In turn, `C=CCNC(=O)c1ccc([N+](=O)[O-])c(Cl)c1` had a solubility (kinetic) greater than 36.1 µg/mL. The result for `COc1cccc(C(=O)NCCCn2ccnc2)c1` reads greater than 38.9 µg/mL; that for `CSCCC1NC(=O)N(CC(=O)Nc2cc(C)on2)C1=O` (configuration not stated), greater than 46.9 µg/mL. `CN(Cc1ccccc1)C(=O)COc1ccc2ccccc2c1` gave a kinetic solubility of less than 0.7 µg/mL.

`O=C(NCc1ccccn1)Nc1ccc(Cl)cc1` registered a kinetic solubility of 34 µg/mL (≈ 130 µM). For the molecule `O=C1C2C3C=CC(CC3)C2C(=O)N1c1ccc([N+](=O)[O-])cc1` (configuration not stated), the solubility (kinetic) was 3.4 µg/mL (≈ 11.4 µM). Consider `O=C(CCCOc1ccc(Cl)cc1Cl)Nc1ccccc1C(=O)O`, for which the kinetic solubility is greater than 55.2 µg/mL. To `CC(=O)c1c(C)cc(C)c(CSc2ccccn2)c1C` belongs 20.5 µg/mL (≈ 71.8 µM). Take `O=C(CCCc1ccccc1)NCc1ccccn1`: the solubility (kinetic) came out at 29.2 µg/mL (≈ 115 µM). To `CC(C)(C)NC(=O)/C(=C/c1cccnc1)NC(=O)c1ccco1` belongs greater than 47 µg/mL; to `O=C(NCc1ccc(F)cc1)c1ccncc1`, 34.2 µg/mL (≈ 149 µM). To `O=C(CNC(=O)c1ccc2ccccc2c1)NC1CCCCC1` belongs 13 µg/mL (≈ 41.9 µM); to `Cc1cc(C)c2c(n1)sc1c(N3CCCCC3)ncnc12`, less than 0.2 µg/mL. The result for `COc1cc(OC)cc(C(=O)N2CC(=O)Nc3ccccc32)c1` reads greater than 46.8 µg/mL; that for `O=C(Cc1ccc(Cl)cc1)NCc1nc(-c2ccccc2)no1`, 1.9 µg/mL (≈ 5.8 µM); that for `CCC(C)C(=O)Nc1nc2ccc(OC)cc2s1` (configuration not stated), greater than 39.7 µg/mL. In turn, `COC(=O)Cn1cnc2scc(-c3ccc(C)c(C)c3)c2c1=O` returned a solubility (kinetic) of 33.7 µg/mL (≈ 103 µM). As for `CC1CCCC(NC(=O)CSc2ccc(F)cc2)C1C` (configuration not stated), the kinetic solubility was found to be 2.8 µg/mL (≈ 9.48 µM).

In the case of `CSc1ncccc1C(=O)OCC(=O)Nc1ccc(C)c(S(=O)(=O)N2CCOCC2)c1`, the kinetic solubility was determined as 21 µg/mL (≈ 45.1 µM).
